According to ChEMBL document CHEMBL5335778, “Bench-to-bedside: Innovation of small molecule anti-SARS-CoV-2 drugs in China” (Eur J Med Chem, 2023):

Assays:
[1] = Oral bioavailability in rat; assay type: ADME, organism-based; details: in vivo
[2] = test system: Human immunodeficiency virus 1; experiment: Antiviral activity against HIV-1 3B infected in human MT4 cells assessed as reduction in virus-induced cytopathic effect incubated for 5 days by MTT assay; assay type: functional, organism-based; details: Human immunodeficiency virus 1, 3B, MT4, 120 h
[3] = Cytotoxicity against human MT4 cells assessed as reduction in cell viability treated for 5 days by MTT assay; assay type: toxicity, cell-based; details: time 5 day
SARS-CoV-2 [4] = experiment: Antiviral activity against SARS-CoV-2 Omicron assessed as reduction of viral growth; assay type: functional, organism-based; details: Severe acute respiratory syndrome coronavirus 2, Omicron
[5] = biological target: Human immunodeficiency virus type 1 protease (Human immunodeficiency virus 1, UniProt Q72874); experiment: Inhibition of HIV-1 protease
SARS-CoV-2 [6] = experiment: Antiviral activity against SARS-Co-V-2 infected in Vero E6 cells assessed as reduction in viral replication; assay type: functional, organism-based; details: Severe acute respiratory syndrome coronavirus 2, Vero C1008
SARS-CoV-2 [7] = experiment: Antiviral activity against SARS-CoV-2 infected in human A549-ACE2 cells; assay type: functional, organism-based; details: Severe acute respiratory syndrome coronavirus 2, A549-ACE2
Hepatitis C virus = experiment: Antiviral activity against HCV infected in human Huh-7.5.1 cells assessed as reduction in viral infection incubated for 48 hrs by MTS assay; assay type: functional, organism-based, Hepacivirus hominis; details: Huh-7.5.1, 48 h
SARS-CoV-2 [8] = experiment: Antiviral activity against SARS-CoV-2 in human A549-ACE2 cells assessed as reduction in viral growth; assay type: functional, organism-based; details: Severe acute respiratory syndrome coronavirus 2, A549-ACE2
SARS-CoV-2 [9] = experiment: Antiviral activity against SARS-CoV-2 B.1 infected in Green monkey VeroE6/TMPRSS2 cells assessed as inhibition of viral replication incubated for 2 days by qRT-PCR analysis; assay type: functional, organism-based; details: Severe acute respiratory syndrome coronavirus 2, B.1, VeroE6/TMPRSS2, 48 h
[10] = Inhibition of DENV RNA-dependent RNA polymerase activity; design: species or system Dengue virus
[11] = Oral bioavailability in Beagle dog at 3 mg/kg; assay type: ADME, organism-based, Canis lupus familiaris; details: in vivo
[12] = Cytotoxicity against African green monkey Vero E6 cells assessed as cell growth inhibition measured after 48 hrs by CCK-8 assay; assay type: toxicity, cell-based, Vero C1008; details: chlorocebus sabaeus
SARS-CoV-2 [13] = experiment: Antiviral activity against SARS-COV-2 infected in African green monkey Vero E6 cells assessed as reduction in viral growth; assay type: functional, organism-based; details: Severe acute respiratory syndrome coronavirus 2, Vero C1008
[14] = Oral bioavailability in Sprague-Dawley rat at 3 mg/kg by HPLC analysis; assay type: ADME, organism-based; details: in vivo
[15] = Oral bioavailability in monkey at 3 mg/kg, HPLC analysis; assay type: ADME, organism-based, Macaca mulatta; details: rhesus monkey, in vivo
[16] = Oral bioavailability in human at 2 mg; assay type: ADME, organism-based; details: in vivo
[17] = Plasma protein binding in rat assessed as free fraction by equilibrium dialysis analysis; assay type: ADME, cell-free
SARS-CoV-2 [18] = experiment: Antiviral activity against SARS-CoV-2 infected in African green monkey Vero E6 cells assessed as reduction in infection measured after 24 hrs by Plaque assay; assay type: functional, organism-based; details: Severe acute respiratory syndrome coronavirus 2, Vero C1008, 24 h
[19] = Selectivity index, ratio of CC50 for African green monkey Vero cells to EC50 for SARS-COV-2; assay type: cell-based; details: read-out: Ratio CC50/EC50
[20] = Oral bioavailability in rat at 2 mg/kg by LC-MS/MS analysis; assay type: ADME, organism-based; details: in vivo
SARS-CoV-2 [21] = experiment: Antiviral activity against luciferase-expressing pseudovirus encoding SARS-CoV-2 Omicron expressing S protein infected in human 293T/ACE2 cells assessed as reduction of viral growth measured after 48 hrs by luciferase assay; assay type: functional, organism-based; details: Severe acute respiratory syndrome coronavirus 2, 293T/ACE2, 48 h
SARS-CoV-2 [22] = experiment: Antiviral activity against SARS-CoV-2 infected in human A549-ACE2 cells assessed as reduction in viral replication; assay type: functional, organism-based; details: Severe acute respiratory syndrome coronavirus 2, A549-ACE2
SARS-CoV-2 [23] = experiment: Antiviral activity against SARS-CoV-2 infected in African green monkey Vero E6 cells assessed as reduction in cell growth; assay type: functional, organism-based; details: Severe acute respiratory syndrome coronavirus 2, Vero C1008
[24] = test system: Respiratory syncytial virus; experiment: Antiviral activity against Respiratory syncytial virus; assay type: functional, organism-based; details: human respiratory syncytial virus
[25] = Inhibition of HIV-1 […]; design: species or system Human immunodeficiency virus 1
[26] = biological target: Replicase polyprotein 1ab (Severe acute respiratory syndrome coronavirus 2, UniProt P0DTD1); experiment: Inhibition of N-terminal His6-tagged recombinant full length SARS-CoV-2 3CLpro expressed in Escherichia coli BL21(DE3) using MCA-AVLQSGFR-Lys(Dnp)-Lys-NH2 as fluorogenic substrate preincubated with compound for 10 mins followed by substrate addition by FRET assay
Replicase polyprotein 1a = Replicase polyprotein 1a (Severe acute respiratory syndrome-related coronavirus, UniProt P0C6U8); experiment: Inhibition of SARS-CoV 3CLpro
SARS-CoV-2 [27] = experiment: Antiviral activity against SARS-CoV-2 infected in Vero E6 cells assessed as reduction in viral replication; assay type: functional, organism-based; details: Severe acute respiratory syndrome coronavirus 2, Vero C1008

With `[2H]c1cc([C@]2(C#N)O[C@H](CO)[C@@H](O)[C@H]2O)n2ncnc(N)c12` as the compound, how does the bioavailability [1] read?
Its bioavailability is 21.7%.

What about the EC50 [2] of the same compound?
The EC50 was 390 nM.

What about the CC50 at 120 h [3] of the same compound?
Its CC50 at 120 h is > 500000 nM.

For `O=C1C=C(Nc2ccccc2C2CCNCC2)C2=NS(=O)(=O)c3cccc1c32`, which EC50 (SARS-CoV-2 [4]) is on record?
Its EC50 is 33 nM.

With `[N-]=[N+]=N[C@]1(CO)O[C@@H](n2ccc(N)nc2=O)[C@H](O)[C@@H]1O` [4'-AZIDOCYTIDINE] as the compound, how does the IC50 [5] read?
The IC50 was 1280 nM.

What does the source list for `COc1ccc2cc1Oc1ccc(cc1)C[C@H]1c3c(cc4c(c3Oc3cc5c(cc3OC)CCN(C)[C@@H]5C2)OCO4)CCN1C` [CEPHARANTHINE]?
EC50 (SARS-CoV-2 [6]): 980 nM; IC50 (SARS-CoV-2 [7]): 240 nM; IC50 (Hepatitis C virus): 60 nM; IC50 (SARS-CoV-2 [8]): 240 nM; IC50 (SARS-CoV-2 [9]): 1900 nM

For `Br.[2H]c1cc([C@]2(C#N)O[C@H](COC(=O)C(C)C)[C@@H](OC(=O)C(C)C)[C@H]2OC(=O)C(C)C)n2ncnc(N)c12` [DEUREMIDEVIR HYDROBROMIDE], which EC50 [10] is on record?
The EC50 was 240 nM.

What about the bioavailability [11] of the same compound?
Its bioavailability is 80%.

What about the bioavailability [1] of the same compound?
The bioavailability was 80%.

What about the EC50 [2] of the same compound?
Its EC50 is 240 nM.

Which results are given for `CC[C@H](C)[C@@H](C(=O)O[C@@H](CC(C)C)C(=O)N[C@@H](CC(C)C)C(=O)N[C@@H](C)/C=C/C(=O)N1C(=O)C=C(OC)[C@@H]1C)N(C)C` [GALLINAMIDE A]?
CC50 at 48 h [12]: 88 nM; EC50 (SARS-CoV-2 [13]): 28 nM

What does the source list for `N#C[C@@]1(c2ccc3c(N)ncnn23)O[C@H](CO)[C@@H](O)[C@H]1O` [GS-441524]?
bioavailability [14]: 16%; bioavailability [15]: < 8%; bioavailability [16]: 13%; fraction unbound [17]: 0.62; EC50 (SARS-CoV-2 [18]): 390 nM; selectivity ratio [19]: > 1280; bioavailability [20]: 50%; EC50 [2]: 590 nM; CC50 at 120 h [3]: > 500000 nM

What does the source list for `CC[C@H](C)[C@H]1NC(=O)[C@@H](NC(=O)[C@@H](CC(C)C)N(C)C(=O)[C@@H]2CCCN2C(=O)C(C)=O)[C@@H](C)OC(=O)[C@H](Cc2ccc(OC)cc2)N(C)C(=O)[C@@H]2CCCN2C(=O)[C@H](CC(C)C)NC(=O)[C@@H](C)C(=O)[C@H](C(C)C)OC(=O)C[C@@H]1O` [PLITIDEPSIN]?
EC50 (SARS-CoV-2 [21]): 350 nM; EC50 (SARS-CoV-2 [22]): 100 nM; EC50 (SARS-CoV-2 [23]): 0.7 nM

Which EC50 [24] does the source give for `N#C[C@@]1(c2ccc3c(N)ncnn23)O[C@H](COP(=O)(O)OP(=O)(O)OP(=O)(O)O)[C@@H](O)[C@H]1O` [RDV-TP] here?
The EC50 was 13 nM.

For `[N-]=[N+]=N[C@]1(CO)O[C@@H](n2ccc(N)nc2=O)[C@@H](F)[C@@H]1O` [RO-0622], which EC50 [25] is on record?
Its EC50 is 1200 nM.

With `O=C(OC[C@H]1O[C@@H](OC(=O)c2cc(O)c(O)c(OC(=O)c3cc(O)c(O)c(O)c3)c2)[C@H](OC(=O)c2cc(O)c(O)c(OC(=O)c3cc(O)c(O)c(O)c3)c2)[C@@H](OC(=O)c2cc(O)c(O)c(OC(=O)c3cc(O)c(O)c(O)c3)c2)[C@@H]1OC(=O)c1cc(O)c(O)c(OC(=O)c2cc(O)c(O)c(O)c2)c1)c1cc(O)c(O)c(OC(=O)c2cc(O)c(O)c(O)c2)c1` [TANNIC ACID] as the compound, how does the EC50 [26] read?
Its EC50 is 585 nM.

And the EC50 (Replicase polyprotein 1a)?
The EC50 was 8310 nM.

What about the EC50 (SARS-CoV-2 [27]) of the same compound?
Its EC50 is 12900 nM.

With `N#Cc1cn([C@@H]2O[C@H](CO)[C@@H](O)[C@H]2O)c2ncnc(N)c12` [TOYOCAMYCIN] as the compound, how does the EC50 (SARS-CoV-2 [18]) read?
Its EC50 is 590 nM.

For `Nc1ncnc2c1ccn2[C@@H]1O[C@H](CO)[C@@H](O)[C@H]1O` [TUBERCIDIN], which EC50 (SARS-CoV-2 [18]) is on record?
Its EC50 is 590 nM.
